In article PMC6327044, “A chemical biology screen identifies a vulnerability of neuroendocrine cancer cells to SQLE inhibition” (Nature Communications, 2019) one finds GI50 data, which are given here for 1 compound.

The structures appear in SMILES notation.

What all share (assay): cells
What all share (design): species or system panel of 482 human cancer cell lines; ATPLite luminescence growth inhibition after treatment, nine-point dilution curve, 482 cancer cell lines, 384-well
Common to all, as to conditions: 72 h, recommended growth medium
On the technique in general: ATP-based viability assays read luminescence as a measure of living cells.

Test [1] has as its system KPNRTBM1_AUTONOMIC_GANGLIA. As to the method: (§1) Cells were seeded in recommended growth media in black 384-well tissue culture treated plates at 500 cells per well. Cells were equilibrated in assay plates via centrifugation and placed in incubators for 24 h before treatment. […] Treated assay plates were incubated with compounds for 72 h and subsequently were developed for endpoint analysis using ATPLite. Each compound was assessed using a nine-point dilution curve. Cells were defined as sensitive to a given compound based on GI75 < 2 μM with manual quality control of curve fit. GI75 is defined as a drug concentration that causes a 75% reduction in assay readout relative to dimethyl sulfoxide (DMSO)-treated controls. To identify novel cancer vulnerabilities, we screened a panel of 482 cell lines with a diverse set of metabolic inhibitors. […] Given that SCLC is thought to arise from neuroendocrine cells in the lung[9], we tested the NB-598 sensitivity in a panel of 42 SCLC cell lines. We calculated a quantitative metric of sensitivity for each cell line based on the area under the curve (AUC) of the mu/mu.max curve to more accurately capture the potency and extent of NB-598 effects. […] We categorized the SCLC cell lines as sensitive (5/42), moderate (11/42), and insensitive (26/42) (Fig. 1c and Supplementary Data 2) and focused all subsequent efforts on this indication. […] To further understand the patterns of sensitivity, we conducted RNA sequencing (RNA-Seq; Supplementary Data 3) and proteomic (Supplementary Data 4) characterization of the SCLC panel to identify unbiased expression signatures associated with enhanced NB-598 response (Supplementary Fig. 1 and Supplementary Fig. 2). Given the growing understanding that SCLC tumors can be further subdivided based on the status of lineage-defining transcription factors, ASLC1 and NEUROD1, we specifically investigated NB-598 response as the function of ASCL1 and NEUROD1 expression levels. […] To further dissect the NB-598 response within the ASCL1-high/NEUROD-low subset of 25 cell lines, we identified RNA-Seq and proteomics expression signatures associated with NB

A further test deals with NCIH2405_LUNG. As to the method:
as §1

The test system of a further test is HGC27_STOMACH. As to the method: as §1
In test [2] the test system is OCILY3_HAEMATOPOIETIC_AND_LYMPHOID_TISSUE. As to the method: as §1
Another test has as its system 2313287_STOMACH. The protocol: as §1
The subject of another test is LU24_LUNG. As to the method:
as §1

The next test relates to SNU620_STOMACH. The protocol: as §1
In test [3] the test system is YD10B_UPPER_AERODIGESTIVE_TRACT. As to the method: as §1
In test [4] the test system is MM1R_HAEMATOPOIETIC_AND_LYMPHOID_TISSUE. As to the method: as §1
The next test has as its system FARAGE_NS. As to the method: as §1
The test system of test [5] is CAL33_UPPER_AERODIGESTIVE_TRACT. The protocol:
as §1

For a further test, the system named is HCT8_LARGE_INTESTINE
The protocol:
as §1

Test [6] concerns CAL27_UPPER_AERODIGESTIVE_TRACT. The protocol:
as §1

The test system of test [7] is WSUNHL_HAEMATOPOIETIC_AND_LYMPHOID_TISSUE. The protocol:
as §1

A further test has as its system SNU61_LARGE_INTESTINE
As to the method:
as §1

The next test has as its system NCIH1048_LUNG. As to the method:
as §1

In the next test the test system is SKBR3_BREAST. The protocol: as §1

As for `CCN(C/C=C/C#CC(C)(C)C)Cc1cccc(OCc2cc(-c3ccsc3)cs2)c1` [NB-598], the GI50 – broadly, the concentration giving 50% growth inhibition – in test [1] was determined as 3490 nM; in the test on NCIH2405_LUNG, 39.4 nM; with HGC27_STOMACH, 14800 nM; in test [2] it was 91.1 nM; with 2313287_STOMACH, 2190 nM; in the test on LU24_LUNG it was 6570 nM. The GI50 was determined as 1780 nM in the test with SNU620_STOMACH; 71.4 nM in test [3]; 8870 nM in [4]; 14.2 nM in the test with FARAGE_NS; 42.5 nM in test [5]; 10700 nM in the test with HCT8_LARGE_INTESTINE. The GI50 in test [6] was determined as 12400 nM; in [7], 21.8 nM; in the test on SNU61_LARGE_INTESTINE, 280 nM; with NCIH1048_LUNG, 9060 nM; in the test with SKBR3_BREAST, 7190 nM.
